Measurements from patent US12171876B2, “Cationic lipid compound, composition containing same and use thereof” (HANGZHOU TIANLONG PHARMACEUTICAL CO., LTD., priority 2022, dated 2024).
“And” between values parts separate entries of the source, which are not always exact repeats. Identical values can stand only once. “Also recorded” adds a separate entry of the source.

Legend:
[1] = Particle size and polydispersity index (PDI) of lipid nanoparticles by dynamic light scattering; type: physicochemical; conditions: LNP formulation of Example 4, cationic lipid/DSPC/cholesterol/DMG-PEG2000 50:10:38.5:1.5; 25° C., 90° scattering angle
Protocol: The particle size and polydispersity index (PDI) were determined by dynamic light scattering using Malvern laser particle size analyzer.
10 μL of the liposome solution was weighed, diluted to 1 mL with RNase-free deionized water, and added to the sample pool. Each sample was measured in triplicate. The measurement conditions were: 90° scattering angle, and 25° C.

[2] = test system: 293T cells; assay: Cell survival rate assay (CCK-8); type: cell-based; conditions: for Cell survival rate (%) / reduction in the cell survival rate compared with YK-009: 24 hours; for reduction in the cell survival rate compared with YK-009: LNP formulation of Fluc-mRNA
Protocol: (§1) Cell recovery and passage: 293T cells were recovered, cultured in a culture dish, and passaged to the required number of cells.
(§2) Seeding plate: The cells in the culture dish were digested and counted. Cells were spread in a 96-well plate at 10,000 cells per well and in a 12-well plate at 150,000 cells per well. Cells were cultured overnight until the cells adhered to the wall.
A LNP formulation containing 1.5 μg of Fluc-mRNA (the carrier component of the LNP formulation was cationic lipid, neutral lipid, structured lipid and polymer-conjugated lipid with a molar ratio of 50:10:38.5:1.5, wherein the cationic lipid was listed in Table 1) was added to the cell culture medium of a 96-well plate, and further cultivated for 24 hours. 10 μL of CCK-8 solution was then added to each well, and the culture plate was incubated in an incubator for 1 hour. The absorbance at 450 nm was measured by a microplate reader.
To compare the cytotoxicity of LNP formulations prepared from cationic lipid YK-009 and compound 25, we prepared LNP formulations with Fluc-mRNA contents of 1.5 μg, 1.125 μg, 0.75 μg and 0.375 μg (the carrier components of LNP formulations were cationic lipid, neutral lipid, structured lipid and polymer-conjugated lipid with a molar ratio of 50:10:38.5:1.5, wherein the cationic lipid was YK-009 or compound 25). The assay method of cell survival rate was the same as above.

[3] = test system: female BALB/C mice; assay: Mouse live imaging test of LNP formulations of Fluc-mRNA; type: in vivo; conditions: for expression intensity of Fluc-mRNA in mice over time (in words): 3 h to 72 h after intramuscular injection
Protocol: A LNP formulation containing 10 μg of Fluc-mRNA was intramuscularly injected into female BALB/C mice aged 4-6 weeks and weighing 17-19 g, and at specific time points (3 h, 6 h, 24 h, 48 h and 72 h) after administration, mice were injected intraperitoneally with a fluorescent imaging substrate. The mice moved freely for 5 minutes, and then the average radiation intensity (corresponding to fluorescence expression intensity) of the protein expressed by the mRNA carried by LNP in mice was detected using the IVIS Spectrum small animal live imager.
To compare the protein expression and duration in mice of LNP formulations prepared from cationic lipid YK-009 and compound 25, we prepared LNP formulations with Fluc-mRNA contents of 10 μg, 7.5 μg, 5 μg and 2.5 μg (the carrier components of LNP formulations were cationic lipid, neutral lipid, structured lipid and polymer-conjugated lipid with a molar ratio of 50:10:38.5:1.5, wherein the cationic lipid was YK-009 or compound 25). The mouse live imaging test method was the same as above.

[4] = test system: 293T cells; assay: Fluorescent detection of Fluc-mRNA (transfection efficiency of LNP formulations in cells); type: cell-based
Protocol: as §1, §2
A LNP formulation containing 0.3 μg of Fluc-mRNA (the carrier components of the LNP formulation were cationic lipid, neutral lipid, structured lipid and polymer-conjugated lipid with a molar ratio of 50:10:38.5:1.5, wherein the cationic lipid was listed in Table 1) was added to the cell culture medium of a 96-well plate, and further incubated for 24 hours. The corresponding reagent was added according to the instructions of the […] Luciferase Assay Kit, and the fluorescence expression intensity of each well was detected by an IVIS fluorescence detection system. This test verified the transfection efficiency of LNP formulations in cells.
In order to further compare the intracellular transfection efficiency of LNP formulations prepared from cationic lipid YK-009 and compound 25, we prepared LNP formulations with Fluc-mRNA contents of 0.3 μg, 0.225 μg, 0.15 μg and 0.075 μg, respectively (the carrier components of the LNP formulation were cationic lipid, neutral lipid, structured lipid and polymer-conjugated lipid with a molar ratio of 50:10:38.5:1.5, wherein the cationic lipid was YK-009 or compound 25). The intracellular transfection activity of the prepared LNP formulations was detected, and the detection method was the same as above.

[5] = LNP formulation containing 1.5 μg of Fluc-mRNA
[6] = mRNA transfection, time not stated

CCCCC/C=C\C/C=C\CCCCCCCCC(CCCCCCCC/C=C\C/C=C\CCCCC)OC(=O)CCCN(C)C [MC3, reference compound]
PDI (%) [1]: 18.3% | Particle size (nm) [1]: 205.20 nm | Cell survival rate (%) [2, 5]: 88% | expression intensity of Fluc-mRNA in mice over time (in words) [3]: very low at each time

CCCCCCCCCCOC(=O)CCCN(CCO)CCCCC(=O)OCC(CCCCCCCC)CCCCCCCC [YK-006, 2-octyldecyl 5-((4-(decyloxy)-4-oxobutyl)(2-hydroxyethyl)amino)pentanoate]
PDI (%) [1]: 22.9% | Particle size (nm) [1]: 125.35 nm | Cell survival rate (%) [2, 5]: 96%

CCCCCCCCCOC(=O)CCCCCCCN(CCO)CCCCCCCCCC(=O)OC(CCCCCCCC)CCCCCCCC [Compound 23, nonyl 8-((2-hydroxyethyl)(10-((9-heptadecyl)oxy)-10-oxodecyl)amino)octanoate, reference compound]
PDI (%) [1]: 24.4% | Particle size (nm) [1]: 114.12 nm | Cell survival rate (%) [2, 5]: 87% | reduction in the cell survival rate compared with YK-009 [2]: 13% | expression intensity of Fluc-mRNA in mice over time (in words) [3]: decreased rapidly between 6 h and 48 h

CCCCCCCCCOC(=O)CCCN(CCO)CCCCCC(=O)OCC(CCCCCCCC)CCCCCCCC [YK-008, 2-octyldecyl 6-((4-(nonyloxy)-4-oxobutyl)(2-hydroxyethyl)amino)hexanoate]
PDI (%) [1]: 24.4% | Particle size (nm) [1]: 205.00 nm | Cell survival rate (%) [2, 5]: 91%

CCCCCCCCCOC(=O)CCCCCCCN(CCO)CCCCCC(=O)OC(CCCCCCCC)CCCCCCCC [Compound 27, nonyl 8-((2-hydroxyethyl)(6-((9-heptadecyl)oxy)-6-oxohexyl)amino)octanoate, reference compound]
PDI (%) [1]: 13.6% | Particle size (nm) [1]: 178.85 nm | Cell survival rate (%) [2, 5]: 84% | reduction in the cell survival rate compared with YK-009 [2]: 16% | expression intensity of Fluc-mRNA in mice over time (in words) [3]: decreased rapidly between 6 h and 48 h

CCCCCCCCCCOC(=O)CCCCCN(CCO)CCCCCC(=O)OCC(CCCCCCCC)CCCCCCCC [YK-003, 2-octyldecyl 6-((6-(decyloxy)-6-oxohexyl)(2-hydroxyethyl)amino)hexanoate]
PDI (%) [1]: 21.3% | Particle size (nm) [1]: 119.91 nm | Cell survival rate (%) [2, 5]: 84% | expression intensity of Fluc-mRNA in mice over time (in words) [3]: highest expression intensity | expression in mice, times higher than that for MC3 [3, 6]: more than 18 times | expression in mice, times higher than that for compound 23 [3, 6]: > 8 times

CCCCCCCCCCCOC(=O)CCCCCN(CCO)CCCCCC(=O)OCC(CCCCCCCC)CCCCCCCC [YK-007, 2-octyldecyl 6-((2-hydroxyethyl)(6-oxo-6-(undecyloxy)hexyl)amino)hexanoate]
PDI (%) [1]: 13.6% | Particle size (nm) [1]: 178.06 nm | Cell survival rate (%) [2, 5]: 96%

CCCCCCCCCCOC(=O)CCCN(CCO)CCCCCC(=O)OCC(CCCCCC)CCCCCC [YK-011, 2-hexyloctyl 6-((4-(decyloxy)-4-oxobutyl)(2-hydroxyethyl)amino)hexanoate]
PDI (%) [1]: 21.2% | Particle size (nm) [1]: 173.16 nm | Cell survival rate (%) [2, 5]: 98%

CCCCCCCCCCOC(=O)CCCN(CCO)CCCCCC(=O)OCC(CCCCCCCC)CCCCCCCC [YK-009, 2-octyldecyl 6-((4-(decyloxy)-4-oxobutyl)(2-hydroxyethyl)amino)hexanoate]
PDI (%) [1]: 18.2% | Particle size (nm) [1]: 136.44 nm | RLU value / cell transfection efficiency, times that of MC3 ([4]; Fluc-mRNA LNP formulation): 42 times and 40 times | RLU value / cell transfection efficiency, times that of YK-004 ([4]; Fluc-mRNA LNP formulation): 39 times | RLU value / cell transfection efficiency, times that of YK-010 ([4]; Fluc-mRNA LNP formulation): 58 times and ~60 times | RLU value / cell transfection efficiency, times that of compound 27 ([4]; Fluc-mRNA LNP formulation): 13 times | fluorescence absorption, times that of the compound 25 formulation ([4]; LNP formulation containing 0.075 μg of Fluc-mRNA): 3.7 times | fluorescence absorption, times that of the compound 25 formulation ([4]; LNP formulation containing 0.15 μg of Fluc-mRNA): 4.0 times | fluorescence absorption, times that of the compound 25 formulation ([4]; LNP formulation containing 0.225 μg of Fluc-mRNA): 7.0 times | fluorescence absorption, times that of the compound 25 formulation ([4]; LNP formulation containing 0.3 μg of Fluc-mRNA): 4.4 times | cell transfection efficiency, fold compared with compound 25 ([4]; mRNA transfection, content not stated): 7 times | difference in toxicity to transfected cells between YK-009 and YK-010 [2]: ≥ 25% | Cell survival rate (%) ([2]; Fluc-mRNA content 0.375 μg): 100% | Cell survival rate (%) ([2]; Fluc-mRNA content 0.75 μg): 100% | Cell survival rate (%) ([2]; Fluc-mRNA content 1.125 μg): 100% | Cell survival rate (%) ([2]; Fluc-mRNA content 1.5 μg): 100% | Cell survival rate (%) [2, 5]: 100% | reduction in toxicity to transfected cells compared with compound 25 ([2]; mRNA transfection): 9% | toxicity to transfected cells, lower than that of MC3 ([2]; mRNA transfection): 12% | toxicity to transfected cells, lower than that of compound 23 ([2]; mRNA transfection): 13% | toxicity to transfected cells, lower than that of compound 27 ([2]; mRNA transfection): 16% | expression intensity of Fluc-mRNA in mice over time (in words) [3]: highest expression intensity; also recorded: maintain high expression in vivo for a long time | expression in mice, times higher than that for MC3 [3, 6]: more than 25 times | expression in mice, times higher than that for compound 27 [3, 6]: > 6 times | increase in expression in mice compared with compound 25 [3, 6]: 7 fold

CCCCCCCCCCOC(=O)CCCN(CCO)CCCCCC(=O)OCC(CCCCCCC)CCCCCCC [YK-010, 2-heptylnonyl 6-((4-(decyloxy)-4-oxobutyl)(2-hydroxyethyl)amino)hexanoate]
PDI (%) [1]: 19.8% | Particle size (nm) [1]: 124.46 nm | Cell survival rate (%) [2, 5]: 77% | reduction in the cell survival rate compared with YK-009 [2]: 23%

CCCCCCCCCCOC(=O)CCCCN(CCO)CCCCCC(=O)OCC(CCCCCCCC)CCCCCCCC [YK-002, 2-octyldecyl 6-((5-(decyloxy)-5-oxopentyl)(2-hydroxyethyl)amino)hexanoate]
PDI (%) [1]: 27.7% | Particle size (nm) [1]: 156.70 nm | Cell survival rate (%) [2, 5]: 89% | reduction in the cell survival rate compared with YK-009 [2]: 11%

CCCCCCCCCCCOC(=O)CCCCCN(CCO)CCCCCCCC(=O)OC(CCCCCCCC)CCCCCCCC [Compound 25, reference compound]
PDI (%) [1]: 23.1% | Particle size (nm) [1]: 117.10 nm | Cell survival rate (%) ([2]; Fluc-mRNA content 0.375 μg): 99% | Cell survival rate (%) ([2]; Fluc-mRNA content 0.75 μg): 97% | Cell survival rate (%) ([2]; Fluc-mRNA content 1.125 μg): 95% | Cell survival rate (%) ([2]; Fluc-mRNA content 1.5 μg): 91% | expression intensity of Fluc-mRNA in mice over time (in words) [3]: decreased rapidly at 6˜48 h

CCCCCCCCCCCOC(=O)CCCN(CCO)CCCCCC(=O)OCC(CCCCCCCC)CCCCCCCC [YK-001, 2-octyldecyl 6-((4-(undecyloxy)-4-oxobutyl) (2-hydroxyethyl)amino)hexanoate]
PDI (%) [1]: 10.2% | Particle size (nm) [1]: 164.03 nm | Cell survival rate (%) [2, 5]: 85%

CCCCCCCCCCOC(=O)CCCN(CCO)CCCC(=O)OCC(CCCCCCCC)CCCCCCCC [YK-004, 2-octyldecyl 4-((4-(decyloxy)-4-oxobutyl)(2-hydroxyethyl)amino)butyrate]
PDI (%) [1]: 9.7% | Particle size (nm) [1]: 190.65 nm | Cell survival rate (%) [2, 5]: 87%

CCCCCCCCCCOC(=O)CCCN(CCO)CCCCCCCC(=O)OC(CCCCCCCC)CCCCCCCC [YK-005, 9-heptadecyl 8-((4-(decyloxy)-4-oxobutyl)(2-hydroxyethyl)amino)octanoate]
PDI (%) [1]: 17.3% | Particle size (nm) [1]: 148.75 nm | Cell survival rate (%) [2, 5]: 88%
